One compound from PMC4979471 (Cell Death Discovery, 2015) can be followed below.

Read-outs that look alike come from different tables or passages of the source.

Common to all, as to assay: Kinase selectivity, P33-radiolabeled assay
Holding throughout (format): biochemical
What all share (conditions): 10 μM ATP

The target in one experiment is T1, BMX/ETK (Homo sapiens, UniProt P51813).
T1 construct: purchased Reaction Biology Corp
T1 sequence (P51813 1-675): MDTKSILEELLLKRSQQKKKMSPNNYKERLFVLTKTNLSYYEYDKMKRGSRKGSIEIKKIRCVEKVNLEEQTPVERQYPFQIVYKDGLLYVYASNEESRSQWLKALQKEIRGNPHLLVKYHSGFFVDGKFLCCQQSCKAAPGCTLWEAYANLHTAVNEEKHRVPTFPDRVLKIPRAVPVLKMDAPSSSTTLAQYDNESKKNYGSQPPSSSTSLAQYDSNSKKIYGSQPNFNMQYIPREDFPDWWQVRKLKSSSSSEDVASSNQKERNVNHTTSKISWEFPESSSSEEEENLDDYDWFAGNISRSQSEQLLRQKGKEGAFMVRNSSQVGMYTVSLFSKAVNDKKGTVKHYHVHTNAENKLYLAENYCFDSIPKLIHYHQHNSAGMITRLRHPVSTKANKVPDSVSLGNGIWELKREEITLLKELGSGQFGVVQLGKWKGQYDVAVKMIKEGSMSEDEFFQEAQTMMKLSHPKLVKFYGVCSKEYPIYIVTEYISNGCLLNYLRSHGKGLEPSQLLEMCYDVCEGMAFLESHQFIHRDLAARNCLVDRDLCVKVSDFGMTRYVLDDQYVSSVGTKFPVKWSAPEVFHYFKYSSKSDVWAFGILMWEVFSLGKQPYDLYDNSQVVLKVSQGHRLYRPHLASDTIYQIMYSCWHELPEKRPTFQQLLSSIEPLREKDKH
In a few lines: (§1)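 Each enzyme was exposed to 10 μM compound, with duplicate measurements, in reactions containing 10 μM ATP. Numbers are remaining activity as a percent of the vehicle (DMSO) signal.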

A further experiment concerns the target T2, HIPK2 (Homo sapiens, UniProt Q9H2X6).
T2 construct: purchased Reaction Biology Corp
In a few lines:
as §1

For a further experiment, the target named is T3, ITK (Homo sapiens, UniProt Q08881).
T3 construct: purchased Reaction Biology Corp
T3 sequence (Q08881 1-620): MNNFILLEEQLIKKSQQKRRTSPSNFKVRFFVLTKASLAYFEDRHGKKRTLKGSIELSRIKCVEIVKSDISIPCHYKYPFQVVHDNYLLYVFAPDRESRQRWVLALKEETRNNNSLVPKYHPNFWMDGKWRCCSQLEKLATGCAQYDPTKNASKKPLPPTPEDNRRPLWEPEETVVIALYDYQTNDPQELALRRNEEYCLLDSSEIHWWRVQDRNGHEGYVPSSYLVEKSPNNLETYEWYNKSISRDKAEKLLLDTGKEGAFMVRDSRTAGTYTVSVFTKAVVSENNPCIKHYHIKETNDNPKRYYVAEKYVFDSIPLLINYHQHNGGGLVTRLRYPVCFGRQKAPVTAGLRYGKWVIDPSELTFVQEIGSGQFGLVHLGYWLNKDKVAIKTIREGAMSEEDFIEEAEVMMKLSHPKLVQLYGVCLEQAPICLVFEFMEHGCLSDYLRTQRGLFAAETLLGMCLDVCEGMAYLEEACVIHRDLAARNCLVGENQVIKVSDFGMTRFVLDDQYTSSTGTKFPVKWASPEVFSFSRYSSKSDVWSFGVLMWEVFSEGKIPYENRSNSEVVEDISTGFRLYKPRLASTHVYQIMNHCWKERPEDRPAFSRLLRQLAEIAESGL
In outline: as §1

The target in the next experiment is T4, NEK11 (Homo sapiens, UniProt Q8NG66).
T4 construct: purchased Reaction Biology Corp
T4 sequence (Q8NG66 1-645): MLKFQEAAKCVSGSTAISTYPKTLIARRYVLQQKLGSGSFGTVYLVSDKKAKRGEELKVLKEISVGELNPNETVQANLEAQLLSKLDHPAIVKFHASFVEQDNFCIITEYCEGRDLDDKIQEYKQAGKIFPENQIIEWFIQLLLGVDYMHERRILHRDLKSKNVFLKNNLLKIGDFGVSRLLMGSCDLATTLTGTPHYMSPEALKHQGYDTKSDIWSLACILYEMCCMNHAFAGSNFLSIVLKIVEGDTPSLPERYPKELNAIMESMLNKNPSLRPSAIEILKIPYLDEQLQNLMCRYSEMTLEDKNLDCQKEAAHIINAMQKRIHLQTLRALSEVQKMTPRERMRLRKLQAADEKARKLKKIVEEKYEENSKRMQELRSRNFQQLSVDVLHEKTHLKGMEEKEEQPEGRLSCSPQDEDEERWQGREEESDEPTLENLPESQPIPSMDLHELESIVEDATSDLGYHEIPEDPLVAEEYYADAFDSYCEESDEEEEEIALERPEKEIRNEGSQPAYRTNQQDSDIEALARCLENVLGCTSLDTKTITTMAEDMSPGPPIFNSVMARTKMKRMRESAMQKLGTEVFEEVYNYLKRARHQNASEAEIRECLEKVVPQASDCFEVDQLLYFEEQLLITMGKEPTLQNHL
In outline:
as §1

The next experiment has as its target T5, NEK3 (Homo sapiens, UniProt P51956).
T5 construct: purchased Reaction Biology Corp
T5 sequence (P51956 1-506): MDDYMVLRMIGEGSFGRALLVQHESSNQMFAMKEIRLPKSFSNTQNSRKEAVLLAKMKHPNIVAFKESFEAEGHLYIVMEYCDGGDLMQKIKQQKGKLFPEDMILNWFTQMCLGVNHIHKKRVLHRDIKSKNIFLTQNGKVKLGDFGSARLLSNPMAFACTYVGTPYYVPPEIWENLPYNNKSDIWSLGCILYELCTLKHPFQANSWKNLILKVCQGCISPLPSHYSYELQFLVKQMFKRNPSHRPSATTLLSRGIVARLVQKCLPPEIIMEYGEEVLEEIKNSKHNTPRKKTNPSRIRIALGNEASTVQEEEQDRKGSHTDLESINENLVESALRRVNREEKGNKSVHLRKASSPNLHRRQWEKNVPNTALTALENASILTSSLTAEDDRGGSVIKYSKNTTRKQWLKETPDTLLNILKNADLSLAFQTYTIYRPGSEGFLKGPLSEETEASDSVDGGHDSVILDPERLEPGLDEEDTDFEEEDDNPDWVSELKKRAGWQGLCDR
In outline: as §1

A further experiment has as its target T6, TTBK2 (Homo sapiens, UniProt Q6IQ55).
T6 construct: purchased Reaction Biology Corp
In outline: as §1

The target in the next experiment is T7, p70S6K/RPS6KB1 (Homo sapiens, UniProt P23443).
T7 construct: purchased Reaction Biology Corp
In a few lines: as §1

Where [1] appears, read: read-out: % Enzyme Activity (relative to DMSO controls) AVG.
Where [2] appears, read: read-out: % Enzyme Activity (relative to DMSO controls) Data 1.
[3] abbreviates: read-out: % Enzyme Activity (relative to DMSO controls) Data 2.

T2 sequence (Q9H2X6 whole entry): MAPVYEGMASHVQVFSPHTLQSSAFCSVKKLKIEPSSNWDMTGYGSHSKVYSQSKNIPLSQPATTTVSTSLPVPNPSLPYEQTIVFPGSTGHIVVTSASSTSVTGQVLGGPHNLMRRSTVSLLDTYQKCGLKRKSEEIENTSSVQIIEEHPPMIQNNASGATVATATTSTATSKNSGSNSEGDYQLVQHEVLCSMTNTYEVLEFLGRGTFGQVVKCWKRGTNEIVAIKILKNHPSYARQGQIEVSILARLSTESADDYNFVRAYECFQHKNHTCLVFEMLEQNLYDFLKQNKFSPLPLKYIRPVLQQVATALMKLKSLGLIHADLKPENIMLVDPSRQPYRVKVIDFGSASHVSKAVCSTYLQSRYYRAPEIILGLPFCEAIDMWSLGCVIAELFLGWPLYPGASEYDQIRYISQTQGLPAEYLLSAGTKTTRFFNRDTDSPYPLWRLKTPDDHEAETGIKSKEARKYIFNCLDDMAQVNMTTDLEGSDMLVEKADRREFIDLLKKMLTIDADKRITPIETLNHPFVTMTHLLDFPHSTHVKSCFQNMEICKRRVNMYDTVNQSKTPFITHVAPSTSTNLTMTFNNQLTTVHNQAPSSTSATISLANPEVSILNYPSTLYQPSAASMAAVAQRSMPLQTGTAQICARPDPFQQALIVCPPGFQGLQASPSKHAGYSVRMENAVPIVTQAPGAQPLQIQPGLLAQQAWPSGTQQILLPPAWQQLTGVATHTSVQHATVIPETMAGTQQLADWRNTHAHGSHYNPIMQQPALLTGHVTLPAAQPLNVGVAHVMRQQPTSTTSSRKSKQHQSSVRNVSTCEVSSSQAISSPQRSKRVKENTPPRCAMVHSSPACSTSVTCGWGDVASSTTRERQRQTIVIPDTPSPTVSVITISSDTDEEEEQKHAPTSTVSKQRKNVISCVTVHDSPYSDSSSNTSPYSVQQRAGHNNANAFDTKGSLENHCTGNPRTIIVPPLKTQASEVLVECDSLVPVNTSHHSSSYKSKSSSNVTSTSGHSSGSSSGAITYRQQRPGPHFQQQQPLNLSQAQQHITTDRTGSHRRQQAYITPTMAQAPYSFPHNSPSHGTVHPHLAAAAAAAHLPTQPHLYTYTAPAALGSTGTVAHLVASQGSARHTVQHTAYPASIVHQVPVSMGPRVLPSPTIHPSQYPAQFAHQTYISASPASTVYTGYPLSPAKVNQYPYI
T6 sequence (Q6IQ55 whole entry): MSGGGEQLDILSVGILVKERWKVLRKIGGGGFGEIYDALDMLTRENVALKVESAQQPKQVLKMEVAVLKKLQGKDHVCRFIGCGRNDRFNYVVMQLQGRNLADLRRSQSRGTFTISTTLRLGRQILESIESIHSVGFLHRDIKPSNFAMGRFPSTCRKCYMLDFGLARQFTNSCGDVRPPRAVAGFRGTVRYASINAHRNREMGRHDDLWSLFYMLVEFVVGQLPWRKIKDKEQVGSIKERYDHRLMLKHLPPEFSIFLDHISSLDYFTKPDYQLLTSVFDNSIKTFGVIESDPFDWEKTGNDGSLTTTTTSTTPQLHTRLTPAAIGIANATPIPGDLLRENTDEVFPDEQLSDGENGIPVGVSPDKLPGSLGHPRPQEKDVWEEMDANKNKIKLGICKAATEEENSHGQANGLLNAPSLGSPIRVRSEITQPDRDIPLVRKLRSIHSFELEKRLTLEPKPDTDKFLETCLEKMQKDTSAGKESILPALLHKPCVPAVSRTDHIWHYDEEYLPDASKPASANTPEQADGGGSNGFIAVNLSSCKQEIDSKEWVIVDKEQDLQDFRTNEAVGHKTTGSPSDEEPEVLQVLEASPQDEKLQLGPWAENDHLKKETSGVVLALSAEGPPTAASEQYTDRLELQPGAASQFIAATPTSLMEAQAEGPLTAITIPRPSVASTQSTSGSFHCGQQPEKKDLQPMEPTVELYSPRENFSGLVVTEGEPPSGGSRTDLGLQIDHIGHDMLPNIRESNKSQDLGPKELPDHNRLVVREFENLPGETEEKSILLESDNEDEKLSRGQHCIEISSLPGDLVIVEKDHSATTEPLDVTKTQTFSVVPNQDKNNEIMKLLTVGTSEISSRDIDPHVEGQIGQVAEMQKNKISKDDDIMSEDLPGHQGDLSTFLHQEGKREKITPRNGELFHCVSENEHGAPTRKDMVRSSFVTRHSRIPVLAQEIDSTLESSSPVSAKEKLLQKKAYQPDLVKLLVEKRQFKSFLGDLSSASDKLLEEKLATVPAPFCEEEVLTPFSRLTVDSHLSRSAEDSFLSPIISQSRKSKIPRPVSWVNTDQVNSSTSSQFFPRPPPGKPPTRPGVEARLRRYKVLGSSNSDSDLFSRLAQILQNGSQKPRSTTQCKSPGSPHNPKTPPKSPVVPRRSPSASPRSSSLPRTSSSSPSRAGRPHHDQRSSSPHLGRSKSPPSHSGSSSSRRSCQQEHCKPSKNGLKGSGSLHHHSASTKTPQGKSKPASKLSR
T7 sequence (P23443 whole entry): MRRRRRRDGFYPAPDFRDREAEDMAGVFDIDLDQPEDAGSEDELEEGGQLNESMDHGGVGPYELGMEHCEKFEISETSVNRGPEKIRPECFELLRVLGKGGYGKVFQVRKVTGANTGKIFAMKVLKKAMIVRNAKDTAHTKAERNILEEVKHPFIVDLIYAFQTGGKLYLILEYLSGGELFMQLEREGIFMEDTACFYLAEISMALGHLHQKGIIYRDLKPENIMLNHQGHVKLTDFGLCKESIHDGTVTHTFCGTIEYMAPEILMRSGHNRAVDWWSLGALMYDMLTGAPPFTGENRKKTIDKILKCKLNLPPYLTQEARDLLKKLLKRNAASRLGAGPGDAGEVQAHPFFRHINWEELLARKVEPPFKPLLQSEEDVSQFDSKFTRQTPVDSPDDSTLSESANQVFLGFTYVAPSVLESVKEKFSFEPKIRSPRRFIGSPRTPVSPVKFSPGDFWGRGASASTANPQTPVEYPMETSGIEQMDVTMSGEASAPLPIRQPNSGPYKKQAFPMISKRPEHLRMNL

Consider `CC(C)(C)C(=O)N1N=CC[C@H]1c1ccccc1` [GSK′963], for which the remaining activity at 10 µM was 99.9% on BMX/ETK (setting [1]); 94.5% at BMX/ETK (setting [2]); 105% on BMX/ETK (setting [3]); 103% on HIPK2 (setting [1]); 101% on HIPK2 (setting [2]); 104% at HIPK2 (setting [3]). The remaining activity at 10 µM is 102% on ITK (setting [1]); 95.2% at ITK (setting [2]); 108% on ITK (setting [3]); 79.1% on NEK11 (setting [1]); 77.3% on NEK11 (setting [2]); 80.9% on NEK11 (setting [3]). Besides, the remaining activity at 10 µM is 93.5% on NEK3 (setting [1]); 93.2% on NEK3 (setting [2]); 93.8% at NEK3 (setting [3]); 97.8% at TTBK2 (setting [1]); 98.5% at TTBK2 (setting [2]); 97.1% on TTBK2 (setting [3]). Further, the remaining activity at 10 µM on p70S6K/RPS6KB1 (setting [1]) was 99.1%; at p70S6K/RPS6KB1 (setting [2]) it was 97.4%; on p70S6K/RPS6KB1 (setting [3]) it was 101%.
